Like-named read-outs stand apart in the source and are kept apart here.
What was measured:
[1] = Intrinsic dissolution rate (IDR); type: physicochemical; conditions: pH 6.8, 50 mM sodium citrate buffer, 37° C.
Description: The intrinsic dissolution rate is the rate of dissolution of pharmaceutically acceptable ingredients when conditions such as surface area, agitation or stirring speed, pH and ionic strength of the dissolution medium are held constant.
Pellets of the salts were prepared by compressing ca. 100 mg of the compound in a stainless steel die under 1300 pounds force with a dwell time of one minute. The die containing the tablet was submerged in 400 mL of the dissolution medium at 37° C. The solution was stirred by a paddle at ˜60 rpm. At each time point, 3 mL of sample was withdrawn and filtered. After discarding the first half of the filtrate, the remainder was collected and assayed by HPLC method above. The total volume of the dissolution medium was kept at a constant by replenishing the lost volume at each data point with fresh buffer at 37 C.

[2] = Solubility of fenofibric acid salts in water at 25° C.; type: physicochemical
Description: Solubility Determination: Solubility values of fenofibric acid salts in water were determined at 25° C. The salts were weighed into glass vials and water was added. The suspensions were rotated from end to end for about 2 days in a 25° C. water bath. The pH of the suspensions was measured. The residual solid was then removed via filtration through a 0.45 μm PTFE membrane filter. The resulting saturated solution was diluted appropriately into the HPLC mobile phase, and analyzed by the HPLC assay described below (Table 3). The powder x-ray diffraction pattern of the collected residual solid was recorded at the end of experiment.

Compound	IDR [1]	solubility [2]	solubility ([2]; read-out: Solubility)
Tris	0.67 mg/min/cm^2	5450 µg/mL	
Calcium	0.10 mg/min/cm^2		
CCN(CC)CCOC(=O)c1ccc(N)cc1 [Procaine]	1.06 mg/min/cm^2		7200 µg/mL
NCCO [Ethanolamine]	8.05 mg/min/cm^2		
CN(C)C(=N)N=C(N)N [Metformin]	7.09 mg/min/cm^2		
C[N+](C)(C)CCO [Choline]	14.50 mg/min/cm^2		> 300000 µg/mL
CC(C)(Oc1ccc(C(=O)c2ccc(Cl)cc2)cc1)C(=O)O [Free acid, 2-[4-(4-chlorobenzoyl)phenoxy]-2-methyl-propanoic acid, reference compound]	0.30 mg/min/cm^2		265 µg/mL

From patent publication US20080152714A1, “Pharmaceutical Formulations” (priority 2005, published 2008)
